Patent US20130252890A1, “6,7-DIHYDRO-5H-BENZO[7]ANNULENE DERIVATIVES, PROCESS FOR PREPARATION THEREOF, PHARMACEUTICAL PREPARATIONS COMPRISING THEM, AND THE USE THEREOF FOR PRODUCTION OF MEDICAMENTS” (BAYER INTELLECTUAL PROPERTY GMBH, priority 2010, published 2013)
“Also recorded” adds a separate entry of the source.

Experiments:
uterus [1] = test: Oestrogenic action - uterus growth test in the infantile rat; assay type: in vivo; conditions: sc, 72 h, s.c. 3 days, maximum at dose 0.1 mg/kg, relative to E2 0.3 μg/animal, read-out: maximum uterotropic action (% estradiol action) in the dose range from 0.03 to 3 mg/kg
Experimental: Both the uterus and the vagina show a weight increase that is dependent on oestrogenic efficacy, in infantile animals when they are treated with a substance with oestrogenic action. In the uterus, under oestrogenic action there is also proliferation and increase in height of the luminal epithelium.
Immature, intact rats (n=5-6 animals/group; body weight 40-50 g) receive the substance s.c. for 3 days (d1-d3). On day 4 (d4) the animals are killed with CO2. The uteri are removed and weighed. For histological assessment, a piece of uterus, preferably a uterine horn, is fixed in formaldehyde and embedded in paraffin. The stimulation of the organ weights (relative to mg/100 g body weight) and the height of the epithelium are shown as percentage stimulation in comparison with the reference compound 17β-estradiol (E2). (Substitution dose of E2 0.3 μg/animal).

uterus [2] = test: Anti-uterus growth test in the adult rat; conditions: sc, 72 h; ovariectomized adult rat, s.c. 3 days with 1.5 μg/kg/day 17β-estradiol; inhibition of uterus growth; value of 44 is a mean of two measurements; read-out: anti-oestrogenic activity in vivo in % at a dose of 0.3 mg/kg (rat)
Source text: The uterus of oestrogen-substituted rats can be used as a test model for detecting a direct action of substances with anti-oestrogenic properties. The parameter of oestrogenic action is estradiol-induced uterus growth in rats, which is inhibited by simultaneous administration of a substance with anti-oestrogenic action. The experimental animals (n=5-6 animals/group) were ovariectomized before the start of the test, to rule out the influence of endogenous oestrogens. After a phase of 6 to 10 days, the test substances are administered s.c. on 3 consecutive days (d1-d3) in combination with a substitution dose of 1.5 μg/kg/day 17β-estradiol. 17β-estradiol alone serves as positive control, and the excipients serve as negative control. On day 4 (d4) the animals are killed, and the uteri and vaginae are removed and weighed. The organ weights are converted to mg/100 g body weight, then the mean value and the standard deviation are calculated for each dosage. The inhibition of uterus growth induced by 17β-estradiol is shown as percentage inhibition.

[3] = tested on: peripheral cholesterol level; test: Hepatic oestrogenicity in the ovariectomized adult rat (plasma cholesterol); assay type: in vivo; conditions: ovariectomized adult rats, s.c. daily for 6 days; cholesterol day 0 vs day 8
Source text: Substances with oestrogenic action influence the synthesis of various plasma proteins, of coagulation factors and fibrinolytic factors in the liver. […] In the present investigations, lowering of the peripheral cholesterol level is used as a surrogate parameter for analysis of the hepatic oestrogenicity of the claimed pharmacological compounds. Adult ovariectomized rats were, after a pause of 6-10 days, treated daily for 6 days with the substances by subcutaneous application. The plasma cholesterol levels were determined and compared before and after the respective treatment.

[4] = tested on: ovarian estradiol synthesis; test: Stimulation of ovarian oestrogen synthesis (HPG axis) in intact adult rats; assay type: in vivo, rat; conditions: hormonally intact adult rats, daily for 10 days; quotient of peripheral estradiol values after and before treatment
Source text: The clinical use both of pure anti-oestrogens and of various SERMs for the treatment of premenopausal women is limited by their property of stimulating the ovaries through activation of the hypothalamic-pituitary-gonadal axis (HPG axis), which leads to the increase in peripheral estradiol levels (Palomba, S., Orio, F., Jr., Morelli, M., Russo, T., Pellicano, M., Zupi, E., Lombardi, G., Nappi, C., Panici, P. L., and Zullo, F. (2002). Raloxifene administration in premenopausal women with uterine leiomyomas: a pilot study. J Clin Endocrinol Metab 87, 3603-3608). This stimulation of the HPG axis is associated with penetration of the blood-brain barrier and penetration of the brain. To investigate the ovary-stimulating properties of the claimed pharmacological compounds, hormonally intact adult rats were treated with the substances daily for a period of 10 days. The study end point is the quotient of peripheral estradiol values after and before treatment.

[5] = tested on: bone mass and uterus weight; test: Antagonistic action on bone mass and uterus weight in hormonally intact rats; assay type: in vivo, Sprague-Dawley rats; conditions: adult hormonally intact rats, oral 1-10 mg/kg, 2 months
Experimental: Application was oral, in peanut oil/ethanol. The animals were killed on the day after the last application and the tibia and uteri were removed. The uteri were weighed, fixed and prepared for optional histological investigations. Bone density was determined on long bones by pQCT (quantitative computed tomography), once before the treatment, once on the day of autopsy. The variations for this parameter were shown correspondingly between these two reference points (values below 100 correspond to a decrease in bone mass density, values above 100 to an increase). The control group was a group of animals from which the ovaries had been removed (OVX) (due to ovariectomy, as expected there is a decrease in density of the trabecular bone in the measured range over the period of the experiment). All other animals underwent a SHAM-OP (a sham operation) (without the ovaries being removed) in addition to the application treatment. The changes in relative uterus weights served as the reference for the anti-oestrogenic action.

mammary gland = test: Action on the mammary gland in the juvenile rat; assay type: in vivo; conditions: juvenile ovariectomized rats, 6 days
Experimental: The formation of secretory units in the mamma is dependent in particular on gestagens and oestrogens. […] To investigate the stimulating action of test compounds, animals are ovariectomized at the age of 21 days and after a treatment-free interval of 6 days treated either with a combination of the test compound and an oestrogen (for example 70 μg/kg E1) or a combination of the test compound and a gestagen (for example promegestone 0.3 mg/kg) in each case for a period of 6 days. To investigate the antagonistic potential of a test compound, the test compound is given for a period of 6 days together with an oestrogen (see above) and a gestagen (see above). Finally one of the abdominal-inguinal mammary glands is prepared and submitted to so-called whole-mount staining. The number of secretory units on an area of approx. 1.0 mm^2 serves as the end point (moreover, this can also vary according to requirements).

CN(CCCCCCC1=C(c2cc(F)cc(F)c2)CCCc2cc(O)ccc21)CCCCS(=O)(=O)CCCC(F)(F)F [Example 44, 8-(3,5-Difluorophenyl)-9-[6-(methyl{4-[(4,4,4-trifluorobutyl)sulphonyl]butyl}amino)hexyl]-6,7-dihydro-5H-benzo[7]annulen-3-ol]
Emax at 0.1 mg/kg (uterus [1]): 6% | inhibition in vivo at 0.3 mg/kg (uterus [2]): 37% | hepatic oestrogenicity: lowering of the peripheral cholesterol level [3]: only observed at high dosage | Stimulation of ovarian oestrogen synthesis: factor at a dose of 3 mg/kg rat [4]: 1.2 | effect on relative uterus weight (anti-oestrogenic action) [5]: dose-dependent anti-oestrogenic action on the uterus; also recorded: dose-dependent decrease | trabecular bone mass density of the tibia [5]: not reduced; also recorded: does not show a significant decrease in bone mass density at any of the tested dosages | induction of mammary gland differentiation (agonistic potential) (mammary gland; test compound alone with gestagen R5020 or alone with oestrogen E1): no induction of mammary gland differentiation significantly different from the group given excipients; also recorded: did not show any agonistic, inducing potential | formation of mammary secretory units induced by E1 and R5020 (mammary gland; test compound with oestrogen E1 and gestagen promegestone (R5020)): dose-dependent inhibition; also recorded: dose-dependent reduction of this effect
